Source: US12581252B2, “Substituted pyrrolo[3,4-b]pyridines as PI3K-α inhibitors” (Relay Therapeutics, Inc., priority 2020, dated 2026)

Target: H1047R PIK3CA enzyme (Homo sapiens, UniProt P42336, H1047R)
Assay: ADP-Glo Biochemical PIK3CA Kinase Assay

H1047R PIK3CA enzyme, sequence (P42336 whole entry H1047R): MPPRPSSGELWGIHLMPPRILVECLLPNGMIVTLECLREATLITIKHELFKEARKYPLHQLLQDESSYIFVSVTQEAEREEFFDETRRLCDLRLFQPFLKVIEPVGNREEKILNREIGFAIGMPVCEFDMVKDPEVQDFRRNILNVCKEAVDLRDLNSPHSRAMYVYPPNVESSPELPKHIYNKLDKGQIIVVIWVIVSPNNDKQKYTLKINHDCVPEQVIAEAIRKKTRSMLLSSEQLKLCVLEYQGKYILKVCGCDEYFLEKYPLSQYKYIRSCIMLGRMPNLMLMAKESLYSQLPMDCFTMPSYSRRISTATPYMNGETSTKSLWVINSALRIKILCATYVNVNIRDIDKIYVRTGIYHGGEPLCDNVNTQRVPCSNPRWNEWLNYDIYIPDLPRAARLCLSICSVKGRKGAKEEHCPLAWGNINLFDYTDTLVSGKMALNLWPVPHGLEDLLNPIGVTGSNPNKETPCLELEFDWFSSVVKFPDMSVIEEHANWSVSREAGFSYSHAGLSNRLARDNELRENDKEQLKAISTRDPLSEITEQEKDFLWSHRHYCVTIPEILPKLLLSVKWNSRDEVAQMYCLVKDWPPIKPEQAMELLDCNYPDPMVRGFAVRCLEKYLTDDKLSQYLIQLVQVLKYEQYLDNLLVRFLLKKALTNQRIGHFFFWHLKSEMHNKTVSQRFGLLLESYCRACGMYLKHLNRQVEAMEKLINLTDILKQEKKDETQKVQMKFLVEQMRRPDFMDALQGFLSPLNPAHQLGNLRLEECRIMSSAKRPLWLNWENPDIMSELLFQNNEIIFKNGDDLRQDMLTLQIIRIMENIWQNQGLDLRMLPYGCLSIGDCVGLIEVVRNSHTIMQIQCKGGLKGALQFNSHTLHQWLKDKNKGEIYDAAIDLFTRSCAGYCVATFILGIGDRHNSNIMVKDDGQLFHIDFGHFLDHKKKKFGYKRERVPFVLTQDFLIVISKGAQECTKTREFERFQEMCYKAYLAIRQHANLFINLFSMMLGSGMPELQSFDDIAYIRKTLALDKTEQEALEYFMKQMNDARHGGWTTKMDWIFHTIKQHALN
H1047R PIK3CA enzyme, sequence (P27986 whole entry partner): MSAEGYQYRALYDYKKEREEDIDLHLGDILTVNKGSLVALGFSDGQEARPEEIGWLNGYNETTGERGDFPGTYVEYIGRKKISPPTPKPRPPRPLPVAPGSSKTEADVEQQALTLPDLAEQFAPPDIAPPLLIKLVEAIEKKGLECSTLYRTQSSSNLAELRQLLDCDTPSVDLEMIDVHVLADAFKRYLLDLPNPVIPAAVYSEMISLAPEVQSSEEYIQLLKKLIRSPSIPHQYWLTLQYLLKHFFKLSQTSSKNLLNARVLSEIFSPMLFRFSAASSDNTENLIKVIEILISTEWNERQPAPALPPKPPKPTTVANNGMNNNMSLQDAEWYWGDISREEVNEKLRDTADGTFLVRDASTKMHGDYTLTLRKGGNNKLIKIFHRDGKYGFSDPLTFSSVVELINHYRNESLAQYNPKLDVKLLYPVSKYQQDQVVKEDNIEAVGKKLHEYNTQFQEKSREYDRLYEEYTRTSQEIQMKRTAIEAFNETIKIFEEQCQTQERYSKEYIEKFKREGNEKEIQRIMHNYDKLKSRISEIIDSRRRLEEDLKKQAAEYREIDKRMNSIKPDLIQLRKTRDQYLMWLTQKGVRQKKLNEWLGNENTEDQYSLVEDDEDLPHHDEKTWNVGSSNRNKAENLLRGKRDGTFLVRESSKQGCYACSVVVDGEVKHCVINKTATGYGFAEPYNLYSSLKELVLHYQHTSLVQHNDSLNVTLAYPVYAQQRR

| SMILES | IC50 |
| --- | --- |
| O=C(Nc1cc(N2CC3(COC3)C2)cc2c1C(c1cc(F)ccc1Cl)NC2=O)c1cc(F)cc(C(F)(F)F)c1 (stereo not drawn) [Compound I-729] | ≤ 0.1 µM |
| C[C@@H](C#N)Cn1cc(-c2cc(NC(=O)N3C[C@@H](O)c4cc(F)ccc43)c3c(c2)C(=O)N[C@@H]3c2cc(F)ccc2Cl)cn1 (single isomer, unassigned) [Compound I-2505] | 1 to 10 µM |
| O=C1NC(c2cc(F)ccc2Cl)c2c(NC(=O)N3CCOCC3)cc(Br)cc21 (stereo not drawn) [Compound I-576] | 10 to 100 µM |
| CC(C)(O)c1cc(F)cc(C(=O)Nc2cccc3c2C(c2cc(F)ccc2Cl)NC3=O)c1 (stereo not drawn) [Compound I-627] | 10 to 100 µM |
| CS(=O)(=O)n1cc(-c2cc(NC(=O)c3cc(F)cc(C(F)(F)F)c3)c3c(c2)C(=O)N[C@H]3c2cc(F)ccc2Cl)cn1 [Compound I-1996] | ≤ 0.1 µM |
| CC1(O)CN(c2cc(NC(=O)c3cc(F)cc(C(F)(F)F)c3)c3c(n2)C(=O)NC3c2cc(F)ccc2Cl)C1 (stereo not drawn) [Compound I-322] | 0.1 to 0.5 µM |
| O=C(Cc1cc(-c2ccc3ncnn3c2)cc2c1C(c1cc(F)ccc1Cl)NC2=O)c1cc(F)cc(C(F)(F)F)c1 (stereo not drawn) [Compound I-1772] | 0.1 to 0.5 µM |
| COCCOc1cc(NC(=O)c2cc(F)cc(C(F)(F)F)c2)c2c(c1)C(=O)NC2c1cc(F)ccc1Cl (stereo not drawn) [Compound I-977] | 0.1 to 0.5 µM |
| O=C(Nc1cc(-c2cnc3ncc(Cl)n3c2)cc2c1[C@H](c1cc(F)ccc1Cl)NC2=O)c1cc(F)cc(C(F)(F)F)c1 [Compound I-1985] | ≤ 0.1 µM |
| O=C1NC(c2cc(F)ccc2Cl)c2c(NC(=O)c3cc(F)cc4oc(=O)[nH]c34)cc(Br)cc21 (stereo not drawn) [Compound I-1319] | 1 to 10 µM |
| O=C(Nc1cccc2c1C(c1ccccc1C1COC1)NC2=O)c1cc(F)cc(C(F)(F)F)c1 (stereo not drawn) [Compound I-907] | 10 to 100 µM |
| O=C(Nc1cc(OC2CCC2(F)F)cc2c1C(c1cc(F)ccc1Cl)NC2=O)c1cc(F)cc(C(F)(F)F)c1 (stereo not drawn) [Compound I-1198] | ≤ 0.1 µM |
| C/S(Cc1cc(NC(=O)c2cc(F)cc(C(F)(F)F)c2)c2c(c1)C(=O)NC2c1cc(F)ccc1Cl)=N\C#N (stereo not drawn) [Compound I-1494] | ≤ 0.1 µM |
| CNC(=O)c1cc(-c2ccc3ncnn3c2)cc2c1C(c1cc(F)ccc1Cl)NC2=O (stereo not drawn) [Compound I-1846] | 10 to 100 µM |
| Nc1nc2cc(-c3cc(NC(=O)c4cc(F)cc(C(F)(F)F)c4)c4c(c3)C(=O)N[C@H]4c3cc(F)ccc3Cl)ccn2n1 [Compound I-1447] | ≤ 0.1 µM |
| CC(=O)Nc1cc(NC(=O)N2C[C@](O)(C(F)(F)F)c3cc(F)ccc32)c2c(c1)C(=O)N[C@H]2c1cc(F)ccc1Cl (single isomer, unassigned) [Compound I-2574] | 0.1 to 0.5 µM |
| Cc1ccccc1C1NC(=O)c2cccc(Nc3nc(C)c4ccccc4n3)c21 (stereo not drawn) [Compound I-28] | 10 to 100 µM |
| O=C1N[C@H](c2cc(F)ccc2Cl)c2c(NC(=O)N3C[C@@](O)(C(F)(F)F)c4cc(F)ccc43)ccc(-n3cccn3)c21 (single isomer, unassigned) [Compound I-2496] | 1 to 10 µM |
| O=C1N[C@@H](c2cc(F)ccc2Cl)c2c(NC(=O)N3C[C@@](O)(C(F)(F)F)c4cc(F)ccc43)ccc(-n3nccn3)c21 (single isomer, unassigned) [Compound I-2527] | 1 to 10 µM |
| O=C(Nc1cccc2c1C(c1cc(F)ccc1Cl)NC2=O)c1cc(F)cc(B(O)O)c1 (stereo not drawn) [Compound I-2087] | 10 to 100 µM |
| O=C(Nc1cc(-c2cnc3nccn3c2)cc2c1C(c1cc(F)ccc1Cl)NC2=O)c1cc(F)cc(C(F)(F)F)c1 (stereo not drawn) [Compound I-825] | ≤ 0.1 µM |
| CN1CC(c2cc(NC(=O)c3cc(F)cc(C(F)(F)F)c3)c3c(c2)C(=O)NC3c2cc(F)ccc2Cl)CC1=O (racemic) [Compound I-1687] | ≤ 0.1 µM |
| O=C(Nc1ccc(C(F)(F)F)cc1)c1cccc2c1C(c1cc(F)ccc1Cl)NC2=O (stereo not drawn) [Compound I-2316] | 10 to 100 µM |

| SMILES | IC50 |
| --- | --- |
| NCc1cc(NC(=O)N2C[C@](O)(C(F)F)c3cc(F)ccc32)c2c(c1)C(=O)N[C@@H]2c1cc(F)ccc1Cl (single isomer, unassigned) [Compound I-2695] | 1 to 10 µM |
| CN1CCC=C(c2cc(-c3ccc4ncnn4c3)cc3c2C(c2cc(F)ccc2Cl)NC3=O)C1 (stereo not drawn) [Compound I-2020] | 10 to 100 µM |
| Cn1c(Cl)cc(C(=O)Nc2cc(Br)cc3c2[C@H](c2cc(F)ccc2Cl)NC3=O)cc1=O [Compound I-2095] | 10 to 100 µM |
| Cn1cc(Br)c(C(=O)Nc2cccc3c2C(c2cc(F)ccc2Cl)NC3=O)n1 (stereo not drawn) [Compound I-582] | 10 to 100 µM |
| CC(=O)N1CCN(c2cc(-c3ccc4ncnn4c3)cc3c2C(c2cc(F)ccc2Cl)NC3=O)CC1 (stereo not drawn) [Compound I-2047] | 10 to 100 µM |
| O=C(Nc1cc(-c2cn3ccnc3cn2)cc2c1[C@H](c1cc(F)ccc1Cl)NC2=O)c1cc(F)cc(C(F)(F)F)c1 [Compound I-1330] | ≤ 0.1 µM |
| O=C(Nc1cc(NC(=O)C(F)F)cc2c1C(c1cc(F)ccc1Cl)NC2=O)c1cc(F)cc(C(F)(F)F)c1 (stereo not drawn) [Compound I-467] | ≤ 0.1 µM |
| C[C@@H]([C@H]1C[C@H](O)CN1C(=O)Nc1cccc2c1[C@H](c1cc(F)ccc1Cl)NC2=O)C(F)(F)F (single isomer, unassigned) [Compound I-2378] | 10 to 100 µM |
| Cc1ncc(Nc2cc(NC(=O)c3cc(F)cc(C(F)(F)F)c3)c3c(c2)C(=O)NC3c2cc(F)ccc2Cl)cn1 (stereo not drawn) [Compound I-1245] | ≤ 0.1 µM |
| O=C(Nc1cc(Br)cc2c1C(c1cc(F)ccc1Cl)NC2=O)c1cc(F)c(F)c(Cl)c1 (stereo not drawn) [Compound I-564] | ≤ 0.1 µM |
| O=C1NC(c2cc(F)ccc2Cl)c2c(NC(=O)N3CCNc4ccccc43)cc(Br)cc21 (stereo not drawn) [Compound I-716] | 1 to 10 µM |
| CN(C)S(=O)(=O)Cc1cc(NC(=O)c2cc(F)cc(C(F)(F)F)c2)c2c(c1)C(=O)N[C@@H]2c1cc(F)ccc1Cl [Compound I-1488] | 1 to 10 µM |
| O=C1NC(c2cc(F)ccc2Cl)c2c(C#Cc3cc(F)cc(C(F)(F)F)c3)cccc21 (stereo not drawn) [Compound I-2187] | 10 to 100 µM |
| CC(C)CC1NC(=O)c2cccc(NC(=O)c3cc(F)cc(C(F)(F)F)c3)c21 (stereo not drawn) [Compound I-442] | 1 to 10 µM |
| CS(=O)(=O)N1CCC[C@@H]1COc1cc(NC(=O)c2cc(F)cc(C(F)(F)F)c2)c2c(c1)C(=O)NC2c1cc(F)ccc1Cl (single isomer, unassigned) [Compound I-1378] | ≤ 0.1 µM |
| O=C(Nc1cc(OC2CS(=O)(=O)C2)cc2c1C(c1cc(F)ccc1Cl)NC2=O)c1cc(F)cc(C(F)(F)F)c1 (stereo not drawn) [Compound I-1149] | 1 to 10 µM |
| O=C(Nc1cccc2c1C(c1cc(F)ccc1Cl)NC2=O)c1cc(Cl)cc(C(F)(F)F)c1 (stereo not drawn) [Compound I-725] | 0.5 to 1 µM |
| O=C(Nc1cc(NC(=O)C2CCOCC2)cc2c1C(c1cc(F)ccc1Cl)NC2=O)c1cc(F)cc(C(F)(F)F)c1 (stereo not drawn) [Compound I-347] | ≤ 0.1 µM |
| Cc1ccccc1C(=O)Nc1cc(Br)cc2c1C(c1cc(F)ccc1Cl)NC2=O (stereo not drawn) [Compound I-464] | 10 to 100 µM |
| O=C(Nc1cc(N2CCC(F)(F)C2)nc2c1C(c1cc(F)ccc1Cl)NC2=O)c1cc(F)cc(C(F)(F)F)c1 (stereo not drawn) [Compound I-357] | ≤ 0.1 µM |
| O=C1NC(c2cc(F)ccc2Cl)c2c1cc(-c1ccc3ncnn3c1)cc2-n1ccc2c(F)cc(C(F)(F)F)cc2c1=O (stereo not drawn) [Compound I-2016] | 1 to 10 µM |
| CNc1cc(NC(=O)N2C[C@@](O)(C(F)F)c3cc(F)ccc32)c2c(c1)C(=O)N[C@@H]2c1cc(F)ccc1Cl (single isomer, unassigned) [Compound I-2679] | 10 to 100 µM |
